Measurements as given in patent US20190185865A1, “USE OF PROKARYOTIC TRANSCRIPTIONAL ACTIVATORS AS METABOLITE BIOSENSORS IN EUKARYOTIC CELLS” (Danmarks Tekniske Universitet, priority 2016, published 2019).

Molecular target: T1, BenM (Acinetobacter baylyi, UniProt O68014)
T1 construct: expressed in transfected cells; host or cells: Saccharomyces cerevisiae CEN.PK113-5A, chromosomal integration; promoters TDH3p, TEF1p, RNR2p or REV1p
Assay: CCM-induced GFP expression in yeast strains combining BenM expression cassettes and CYC1p reporter promoter variants (flow cytometry)
Assay type: cell-based, Saccharomyces cerevisiae
Conditions: for FC (+/−CCM): 1.4 mM CCM
Excerpt: Strains, chemicals and media. Saccharomyces cerevisiae CEN.PK102-5B (MATa ura3-52 his3Δ1 leu2-3/112 MAL2-8^c SUC2), CEN.PK113-5A (MATa, trp1 his3Δ1 leu2-3/112 MAL2-8^c SUC2) and CEN.PK113-7D (wild type, MATa MAL2-8^c SUC2) strains were obtained from Peter Kotter (Johann Wolfgang Goethe-University Frankfurt, Germany). In principal any other yeast strains may be used, such as one obtained from public repository EuroScarf. EasyClone plasmids used in this work are described in Jensen, N. B. et al. EasyClone: method for iterative chromosomal integration of multiple genes in Saccharomyces cerevisiae. FEMS Yeast Res. 14, 238-48 (2014). Escherichia coli strain DH5a was used as a host for cloning and plasmid propagation. The chemicals and Pfu TURBO DNA polymerase were commercially obtained (Sigma-Aldrich and Agilent Technologies Inc., respectively). All acids used were >97% in purity. S. cerevisiae cells were grown at 30° C. in synthetic complete medium as well as drop-out media and agar plates were prepared using pre-mixed drop-out powders (Sigma-Aldrich). Mineral medium was freshly prepared as described previously. For all media containing diacids, 1.4 mM of the individual diacids were dissolved in mineral medium and pH adjusted to 4.5 before sterile filtration. For CCM several dilutions were made to examine the performance of the CCM biosensor. For naringenin, mineral medium was supplemented with 0, 0.05, 0.10 or 0.20 mM naringenin, dissolved in ethanol, the final ethanol concentration for each medium was 2% (v/v), and the final pH of the medium was adjusted to 6.0. E. coli cells were grown at 37° C. in Luria-Bertani (LB) medium supplemented with 100 μg/mL ampicillin.
Events were analyzed using FlowJo software (TreeStar Inc.).

T1 sequence (O68014 whole entry): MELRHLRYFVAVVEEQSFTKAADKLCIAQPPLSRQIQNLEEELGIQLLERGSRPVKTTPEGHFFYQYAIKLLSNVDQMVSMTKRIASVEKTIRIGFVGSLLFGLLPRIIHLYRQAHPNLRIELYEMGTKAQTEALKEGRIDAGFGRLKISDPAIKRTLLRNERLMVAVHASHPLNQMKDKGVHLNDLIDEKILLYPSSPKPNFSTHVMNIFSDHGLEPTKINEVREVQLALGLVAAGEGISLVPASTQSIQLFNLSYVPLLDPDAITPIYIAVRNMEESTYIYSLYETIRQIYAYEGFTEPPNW

Compound: O=C(O)/C=C\C=C/C(=O)O [CCM, cis, cis-muconic acid]
- maximum induction of GFP output (chromosomally integrated BenM, 1.4 mM (200 mg/L) CCM, 24 h): 3.5 fold
- increase in reporter output from all CYC1 promoters that harbored BenO (full-length CYC1p with BenO (T1, T2, T1/T2), BenM from TEF1p, 200 mg/L CCM, pH 4.5, 24 h): 1.3-2.2 fold
- highest dynamic range (CCM-inducibility) (minimal promoters 249 bp_CYC1p_BenO_T1 and 209 bp_CYC1p_BenO_T1): 3.2-4.7 fold
- change in reporter output from native CYC1p (native CYC1p, 200 mg/L CCM, pH 4.5, 24 h): no change
- Mean fluorescense intensities of GFP (24 h), CCM (1.4 mM) (strain MeLS0020, TEF1p-BenM + 491bp_CYC1p_BenO_T2:GFP): 813
- FC (+/−CCM) (strain MeLS0020, TEF1p-BenM + 491bp_CYC1p_BenO_T2:GFP, 24 h): 2.224
- Mean fluorescense intensities of GFP (24 h), CCM (1.4 mM) (strain MeLS0021, TEF1p-BenM + 491bp_CYC1p_BenO_T1/T2:GFP): 2967
- FC (+/−CCM) (strain MeLS0021, TEF1p-BenM + 491bp_CYC1p_BenO_T1/T2:GFP, 24 h): 2.184
- Mean fluorescense intensities of GFP (24 h), CCM (1.4 mM) (strain MeLS0025, TEF1p-BenM + 209bp_CYC1p_BenO_T1:GFP): 4139
- FC (+/−CCM) (strain MeLS0025, TEF1p-BenM + 209bp_CYC1p_BenO_T1:GFP, 24 h): 3.494
- Mean fluorescense intensities of GFP (24 h), CCM (1.4 mM) (strain MeLS0026, TEF1p-BenM + 209bp_CYC1p_BenO_T2:GFP): 406
- FC (+/−CCM) (strain MeLS0026, TEF1p-BenM + 209bp_CYC1p_BenO_T2:GFP, 24 h): 1.068
- Mean fluorescense intensities of GFP (24 h), CCM (1.4 mM) (strain MeLS0027, TEF1p-BenM + 209bp_CYC1p_BenO_T1/T2:GFP): 1879
- FC (+/−CCM) (strain MeLS0027, TEF1p-BenM + 209bp_CYC1p_BenO_T1/T2:GFP, 24 h): 3.394
- Mean fluorescense intensities of GFP (24 h), CCM (1.4 mM) (strain MeLS0044, REV1p-BenM + 491bp_CYC1p_BenO_T2:GFP): 667
- FC (+/−CCM) (strain MeLS0044, REV1p-BenM + 491bp_CYC1p_BenO_T2:GFP, 24 h): 1.524
- Mean fluorescense intensities of GFP (24 h), CCM (1.4 mM) (strain MeLS0045, REV1p-BenM + 491bp_CYC1p_BenO_T1/T2:GFP): 1698
- FC (+/−CCM) (strain MeLS0045, REV1p-BenM + 491bp_CYC1p_BenO_T1/T2:GFP, 24 h): 1.418
- CCM-inducibility (strain MeLS0049, 209 bp_CYC1p_BenO_T1, BenM from REV1p): 3.8 fold
- Mean fluorescense intensities of GFP (24 h), CCM (1.4 mM) (strain MeLS0049, REV1p-BenM + 209bp_CYC1p_BenO_T1:GFP): 880
- FC (+/−CCM) (strain MeLS0049, REV1p-BenM + 209bp_CYC1p_BenO_T1:GFP, 24 h): 3.81
- Mean fluorescense intensities of GFP (24 h), CCM (1.4 mM) (strain MeLS0050, REV1p-BenM + 209bp_CYC1p_BenO_T2:GFP): 182
- FC (+/−CCM) (strain MeLS0050, REV1p-BenM + 209bp_CYC1p_BenO_T2:GFP, 24 h): 1.166
- Mean fluorescense intensities of GFP (24 h), CCM (1.4 mM) (strain MeLS0051, REV1p-BenM + 209bp_CYC1p_BenO_T1/T2:GFP): 307
- FC (+/−CCM) (strain MeLS0051, REV1p-BenM + 209bp_CYC1p_BenO_T1/T2:GFP, 24 h): 1.569
- Mean fluorescense intensities of GFP (24 h), CCM (1.4 mM) (strain MeLS0070, RNR2p-BenM + 209bp_CYC1p_BenO_T1/T2:GFP): 356
- FC (+/−CCM) (strain MeLS0070, RNR2p-BenM + 209bp_CYC1p_BenO_T1/T2:GFP, 24 h): 1.775
- Mean fluorescense intensities of GFP (24 h), CCM (1.4 mM) (strain MeLS0079, TEF1p-BenM): 185
- FC (+/−CCM) (strain MeLS0079, TEF1p-BenM, 24 h): 1.071
- Mean fluorescense intensities of GFP (24 h), CCM (1.4 mM) (strain MeLS0081, REV1p-BenM): 175
- FC (+/−CCM) (strain MeLS0081, REV1p-BenM, 24 h): 1.105
- Mean fluorescense intensities of GFP (24 h), CCM (1.4 mM) (strain MeLS0139, REV1p-BenM + 491bp_CYC1p:GFP): 2231
- FC (+/−CCM) (strain MeLS0139, REV1p-BenM + 491bp_CYC1p:GFP, 24 h): 0.9828
- Mean fluorescense intensities of GFP (24 h), CCM (1.4 mM) (strain MeLS0140, REV1p-BenM + 272bp_CYC1p:GFP): 183
- FC (+/−CCM) (strain MeLS0140, REV1p-BenM + 272bp_CYC1p:GFP, 24 h): 1.105
- Mean fluorescense intensities of GFP (24 h), CCM (1.4 mM) (strain MeLS0141, REV1p-BenM + 249bp_CYC1p:GFP): 176
- FC (+/−CCM) (strain MeLS0141, REV1p-BenM + 249bp_CYC1p:GFP, 24 h): 1.056
- Mean fluorescense intensities of GFP (24 h), CCM (1.4 mM) (strain MeLS0142, REV1p-BenM + 209bp_CYC1p:GFP): 174
- FC (+/−CCM) (strain MeLS0142, REV1p-BenM + 209bp_CYC1p:GFP, 24 h): 1.09
- Mean fluorescense intensities of GFP (24 h), CCM (1.4 mM) (strain MeLS0143, REV1p-BenM + 491bp_CYC1p_BenO_T1:GFP): 5789
- FC (+/−CCM) (strain MeLS0143, REV1p-BenM + 491bp_CYC1p_BenO_T1:GFP, 24 h): 1.088
- Mean fluorescense intensities of GFP (24 h), CCM (1.4 mM) (strain MeLS0144, REV1p-BenM + 272bp_CYC1p_BenO_T1:GFP): 804
- FC (+/−CCM) (strain MeLS0144, REV1p-BenM + 272bp_CYC1p_BenO_T1:GFP, 24 h): 2.381
- Mean fluorescense intensities of GFP (24 h), CCM (1.4 mM) (strain MeLS0145, REV1p-BenM + 249bp_CYC1p_BenO_T1:GFP): 405
- FC (+/−CCM) (strain MeLS0145, REV1p-BenM + 249bp_CYC1p_BenO_T1:GFP, 24 h): 1.953
- Mean fluorescense intensities of GFP (24 h), CCM (1.4 mM) (strain MeLS0147, TDH3p-BenM + 272bp_CYC1p_BenO_T1:GFP): 4984
- FC (+/−CCM) (strain MeLS0147, TDH3p-BenM + 272bp_CYC1p_BenO_T1:GFP, 24 h): 3.738
- Mean fluorescense intensities of GFP (24 h), CCM (1.4 mM) (strain MeLS0148, TEF1p-BenM + 272bp_CYC1p_BenO_T1:GFP): 4032
- FC (+/−CCM) (strain MeLS0148, TEF1p-BenM + 272bp_CYC1p_BenO_T1:GFP, 24 h): 3.463
- Mean fluorescense intensities of GFP (24 h), CCM (1.4 mM) (strain MeLS0149, RNR2p-BenM + 272bp_CYC1p_BenO_T1:GFP): 854
- FC (+/−CCM) (strain MeLS0149, RNR2p-BenM + 272bp_CYC1p_BenO_T1:GFP, 24 h): 2.313
- Mean fluorescense intensities of GFP (24 h), CCM (1.4 mM) (strain MeLS0150, TDH3p-BenM + 209bp_CYC1p_BenO_T1:GFP): 4868
- FC (+/−CCM) (strain MeLS0150, TDH3p-BenM + 209bp_CYC1p_BenO_T1:GFP, 24 h): 4.082
- Mean fluorescense intensities of GFP (24 h), CCM (1.4 mM) (strain MeLS0151, RNR2p-BenM + 209bp_CYC1p_BenO_T1:GFP): 859
- FC (+/−CCM) (strain MeLS0151, RNR2p-BenM + 209bp_CYC1p_BenO_T1:GFP, 24 h): 3.735
- Mean fluorescense intensities of GFP (24 h), CCM (1.4 mM) (strain MeLS0152, TDH3p-BenM): 184
- FC (+/−CCM) (strain MeLS0152, TDH3p-BenM, 24 h): 1.08
- Mean fluorescense intensities of GFP (24 h), CCM (1.4 mM) (strain MeLS0153, RNR2p-BenM): 174
- FC (+/−CCM) (strain MeLS0153, RNR2p-BenM, 24 h): 1.13
- Mean fluorescense intensities of GFP (24 h), CCM (1.4 mM) (strain MeLS0156, TEF1p-BenM + 491bp_CYC1p:GFP): 3016
- FC (+/−CCM) (strain MeLS0156, TEF1p-BenM + 491bp_CYC1p:GFP, 24 h): 0.9902
- Mean fluorescense intensities of GFP (24 h), CCM (1.4 mM) (strain MeLS0157, TEF1p-BenM + 272bp_CYC1p:GFP): 198
- FC (+/−CCM) (strain MeLS0157, TEF1p-BenM + 272bp_CYC1p:GFP, 24 h): 1.13
- Mean fluorescense intensities of GFP (24 h), CCM (1.4 mM) (strain MeLS0158, TEF1p-BenM + 249bp_CYC1p:GFP): 175
- FC (+/−CCM) (strain MeLS0158, TEF1p-BenM + 249bp_CYC1p:GFP, 24 h): 1.117
- Mean fluorescense intensities of GFP (24 h), CCM (1.4 mM) (strain MeLS0159, TEF1p-BenM + 209bp_CYC1p:GFP): 177
- FC (+/−CCM) (strain MeLS0159, TEF1p-BenM + 209bp_CYC1p:GFP, 24 h): 1.132
- Mean fluorescense intensities of GFP (24 h), CCM (1.4 mM) (strain MeLS0160, RNR2p-BenM + 491bp_2YC1p:GFP): 2811
- FC (+/−CCM) (strain MeLS0160, RNR2p-BenM + 491bp_2YC1p:GFP, 24 h): 1.071
- Mean fluorescense intensities of GFP (24 h), CCM (1.4 mM) (strain MeLS0161, RNR2p-BenM + 272bp_CYC1p:GFP): 180
- FC (+/−CCM) (strain MeLS0161, RNR2p-BenM + 272bp_CYC1p:GFP, 24 h): 1.049
